Data published in patent US11878053B2, “Vaccine compositions comprising tryptophan 2,3-dioxygenase or fragments thereof” (IO Biotech ApS, priority 2014, dated 2024).

Key:
HLA-A2 = target: T1, HLA-A2 (Homo sapiens, UniProt P04439, D140Y/D185E/D98H/E176V/E277Q/G131W/G231S/I119V/I121R/I166T/I218V/N151K/N90K/P208A/P217A/Q86G/Q94H/R138H/R169H); details: positive control peptides, well described; cited from earlier work
T1 construct: made in house; host or cells: E. coli

CD4+ T cells in PBMC = assay: Cytokine ELISPOT (IFNγ, TNFα, IL-10, IL-17A) with long TDO peptides; format: cell-based, human; details: for Peptide-specific CD4 T-cell responses: ELISPOT, cancer patients and healthy donors; for IFNγ producing CD4+ T cells, cancer patients vs healthy donors: IFNγ ELISPOT; for IL-10 production in response to peptide stimulation: IL-10 ELISPOT; for IL-17 production in response to peptide stimulation: IL-17 ELISPOT; for cells producing TNFα in response to peptide, cancer patients vs healthy donors: TNFα ELISPOT
T2 cells = assay: 51Cr-release cytotoxicity assay, peptide-pulsed T2 cells; format: cell-based; details: short peptides added immediately before the assay, long peptides loaded overnight
Protocol: Assessment of the cytotoxic capability of the generated T-cell lines was evaluated using a conventional chromium release assay as described. Briefly, target tumor cell lines were labeled with 100 μCi ^51Cr (Perkin Elmer, Skovlunde, Denmark) in 100 μl RPMI 1640 (Gibco) supplied with 10% FCS (Gibco) for one hour at 37° C. After washing of target cells, they were incubated with effector cells at different effector:target (E:T) ratios for four hours in the incubator. Subsequently, the amount of radioactivity in the supernatant was measured using a gamma cell counter (Perkin Elmer Wallac Wizard 1470 Automatic gamma counter).

[1] = tested on: TDO-specific CD8+ T cells; assay: Tetramer staining (flow cytometry) of TDO-specific CD8+ T cells; format: cell-based, human; details: PBMC from a cancer patient repeatedly stimulated with autologous DC loaded with the peptide (5- or 4-times)
Protocol: DC were generated by adherence of PBMCs to the plastic surface of a well for one hour in RPMI 1640 (Gibco) before removal of non-adherent cells. The adherent cells were treated with 1000 U/ml GM-CSF (PeproTech, London, UK) and 250 U/ml IL-4 (Peprotech) in X-vivo (Lonza, Copenhagen, Denmark) supplied with 5% human AB serum (Sigma-Aldrich) and placed in a 37° C., 5% CO2 and humidified environment. On day six, maturation cocktail consisting of 1000 U/ml of each TNFα, IL-1P and IL-6 and 1 μg/ml PGE2 (Peprotech) was added to the cells. On day eight, mature DCs were harvested, loaded with 100 μM TDO peptide in X-vivo 15 (Lonza) for four hours in the incubator. After washing, peptide-loaded DCs were mixed with autologous PBLs in X-vivo 15 (Lonza) supplied with 5% human AB serum (Sigma-Aldrich). […] Cultures were stimulated this way twice seven days apart. Further stimulations were performed using autologous, irradiated (25Gy) PBLs loaded with 100 μM TDO peptide. The day after stimulation with PBLs the cultures were supplied with IL-2 (Proleukin; Novartis, Copenhagen, Denmark) to a final concentration of 40 U/ml. Peptide loaded MHC tetramers were […] with 2.5 μl of each phycoerytrhin (PE). […] The stainings were performed in 50 μl PBS (Lonza) supplied with 2% FCS (Gibco) for 15 minutes in the incubator. […]

[2] = tested on: peripheral blood mononuclear cells (PBMC); assay: IFNγ ELISPOT assay with HLA-A2 restricted TDO peptides; format: cell-based, human; details: for TDO responses shown by ELISPOT vs control peptide, DFR method: 3*10^5 cells/well, control peptide HIVpol463-476, examples; for IFNγ producing T-cell in response to the peptide: PBMC from six cancer patients, after one round of in vitro stimulation; for ex vivo IFNγ ELISPOT response: directly ex vivo, PBMC from different cancer patients, 9*10^5 cells/well

Sequence	affinity towards HLA-A2 (HLA-A2)	Peptide-specific CD4 T-cell responses (CD4+ T cells in PBMC)	IFNγ producing CD4+ T cells, cancer patients vs healthy donors (CD4+ T cells in PBMC)	IL-10 production in response to peptide stimulation (CD4+ T cells in PBMC)	IL-17 production in response to peptide stimulation (CD4+ T cells in PBMC)	cells producing TNFα in response to peptide, cancer patients vs healthy donors (CD4+ T cells in PBMC)	lysis of T2 cells pulsed with the peptide by TDO123-132 specific cells (T2 cells)	frequency of TDO-specific CD8+ T cells by two color tetramer staining [1]	TDO responses shown by ELISPOT vs control peptide, DFR method [2]	IFNγ producing T-cell in response to the peptide [2]	ex vivo IFNγ ELISPOT response [2]
ILKEPVHGV [HIVpol468-476]	high affinity	–	–	–	–	–	–	–	–	–	–
VSVILKLLVQQFSILETMTA (Peptide fragment of human TDO) [TDO118-137, long (20 amino acids) peptide comprising TDO123-132]	–	present in both cancer patients and healthy donors	no difference	restricted to cancer patients	restricted to cancer patients	more frequent in healthy donors	lysed	–	–	–	–
KLLVQQFSIL (Peptide fragment of human TDO) [TDO123-132, Polypeptide fragment of human TDO]	–	–	–	–	–	–	lysed	dramatically increased	statistically significant	presence of IFNγ producing T-cell	detectable directly ex vivo
TLLELVEAWL (Peptide fragment of human TDO) [TDO200-208, Polypeptide fragment of human TDO]	–	–	–	–	–	–	–	–	statistically significant	presence of IFNγ producing T-cell	detectable directly ex vivo
QLLTSLMDI (Peptide fragment of human TDO) [TDO309-317, Polypeptide fragment of human TDO]	–	–	–	–	–	–	not	dramatically increased	statistically significant	presence of IFNγ producing T-cell	detectable directly ex vivo
DLFNLSTYL (Peptide fragment of human TDO) [TDO364-372, Polypeptide fragment of human TDO]	–	–	–	–	–	–	–	–	statistically significant	presence of IFNγ producing T-cell	–
RFQVPFQLLTSLMDIDSLMT (Peptide fragment of human TDO) [TDO303-322, long (20 amino acids) peptide comprising TDO309-317]	–	present in both cancer patients and healthy donors	no difference	restricted to cancer patients	restricted to cancer patients	more frequent in healthy donors	not	–	–	–	–
